For 11 compounds, melting point and IC50 results are on record in patent publication US7825112B2, “2-carbamide-4-phenylthiazole derivatives, preparation thereof and therapeutic use thereof” (sanofi-aventis, priority 2006, dated 2010).

One data set has as its target T1, human CCR2b receptor (Homo sapiens, UniProt P41597).
T1 construct: host or cells: CHO-K1
T1 sequence (P41597 1-360 isoform P41597-2): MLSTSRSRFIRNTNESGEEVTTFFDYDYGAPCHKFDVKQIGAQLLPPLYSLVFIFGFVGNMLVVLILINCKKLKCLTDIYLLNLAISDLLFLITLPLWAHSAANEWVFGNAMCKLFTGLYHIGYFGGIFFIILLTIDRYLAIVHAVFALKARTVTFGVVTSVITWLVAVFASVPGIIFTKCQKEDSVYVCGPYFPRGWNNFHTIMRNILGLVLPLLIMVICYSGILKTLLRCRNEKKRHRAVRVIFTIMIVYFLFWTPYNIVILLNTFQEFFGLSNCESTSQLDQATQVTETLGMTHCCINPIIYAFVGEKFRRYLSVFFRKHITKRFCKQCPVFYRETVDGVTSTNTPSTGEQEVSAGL
Briefly: [125I]-MCP-1 binding displacement on CHO-K1-CCR2B cells (inhibiting activity on cells expressing the human CCR2b receptor). Conditions: iodinated MCP-1 0.1 nM, 1 h 30 minutes at ambient temperature, read-out: Cl50 (concentration which inhibited 50% of the activity of the CCR2b receptor). The method, then: The inhibiting activity of the compounds according to the invention was measured on cells expressing the human CCR2b receptor. The concentration of natural hMCP-1 agonist which inhibited 50% (Cl50) of the activity of the CCR2b receptor was 0.57 nM.
The following are brought into contact for 1 h 30 minutes at ambient temperature, in Millipore GF/B filter plates (ref. MAFBNOB 10 or 50): 50 μl of compound at 3×10^−5 M in the reaction buffer or cold MCP-1 range ((R & D Systems). Recombinant human MCP-1) (final concentration of compound: 10^−5 M), and 50 μl of iodinated MCP-1 ([^125 l]-MCP-1 human recombinant Bolton+Hunter labelled (Amersham)) at 0.3 nM in distilled water (final concentration of iodinated MCP-1: 0.1 nM), and 50 μl of CHO-K1-CCR2B cells (obtained from Euroscreen Brussels, Belgium) at 6×10^5 cells/ml (final concentration in the reaction buffer: […]). The filters were saturated beforehand with 100 μl of PEI at a final concentration of 0.0125% in PBS, for 72 h at 4° C., and the PEI was removed by filtration. The content of the wells was filtered and washed twice with the reaction buffer, and the filters were left to dry overnight. The following day, 20 μl/well of “Wallac Optiphase Super Mix” scintillant were dispensed. The filters were impregnated for 1 to 2 h and then counted with Trilux Iodine 125 for 1 min.
Reaction buffer=PBS buffer, […], 1 mM CaCl2, 5 mM MgCl2, 0.5% fatty acid-free BSA, adjusted to pH 7.4.

What is called melting point is the temperature, or range, at which the solid turns liquid. The compound `COc1ccc(C2CCCCC2)cc1-c1csc(NC(=O)N2CCN(C3CCOCC3)CC2)n1` [Compound No 11, 4-(tetrahydropyran-4-yl)piperazine-1-carboxylic acid [4-(5-cyclohexyl-2-methoxyphenyl)thiazol-2-yl]amide] yielded a melting point of 226 °C. The IC50 at human CCR2b receptor is 20 nM.

In turn, `COc1ccc(C2CCCCC2)cc1-c1csc(NC(=O)N2CCN(C[C@@H]3CCCN(CCCCC(=O)O)C3)CC2)n1` [compound 9, 5-((R)-3-{4-[4-(5-cyclohexyl-2-methoxyphenyl)thiazol-2-ylcarbamoyl]piperazin-1-ylmethyl}piperidin-1-yl)pentanoic acid] registered a melting point of 153 °C. Further, the IC50 on human CCR2b receptor amounted to 4 nM. In turn, `COc1ccc(C2CCCCC2)cc1-c1csc(NC(=O)N2CCN(C3CCCCC3)CC2)n1` [compound 10, 4-cyclohexylpiperazine-1-carboxylic acid [4-(5-cyclohexyl-2-methoxyphenyl)thiazol-2-yl]amide] registered a melting point of 110 °C. The IC50 at human CCR2b receptor was 53 nM. Consider `COc1ccc(C2CCCCC2)cc1-c1csc(NC(=O)N2CCN(C(=O)[C@@H]3CCCN(C4CC4)C3)CC2)n1` [compound 22, 4-((R)-1-cyclopropylpiperidine-3-carbonyl)piperazine-1-carboxylic acid [4-(5-cyclohexyl-2-methoxyphenyl)thiazol-2-yl]amide], for which the IC50 on human CCR2b receptor is 4 nM. Turning to `CCCCc1ccc(OCC)c(-c2csc(NC(=O)N3CCN(C[C@@H]4CCCN(C5CC5)C4)CC3)n2)c1` [compound 23, 4-((S)-1-cyclopropylpiperidin-3-ylmethyl)piperazine-1-carboxylic acid [4-(5-butyl-2-ethoxyphenyl)thiazol-2-yl]amide], the melting point was 86 °C. The IC50 at human CCR2b receptor stood at 8 nM. Consider `COc1ccc(C2CCCCC2)cc1-c1csc(NC(=O)N2CCN(C[C@@H]3CCCN(S(=O)(=O)C4CC4)C3)CC2)n1` [compound 29, 4-((S)-1-cyclopropanesulphonylpiperidin-3-ylmethyl)piperazine-1-carboxylic acid [4-(5-cyclohexyl-2-methoxyphenyl)thiazol-2-yl]amide], for which the melting point is 114 °C. Further, the IC50 at human CCR2b receptor stood at 50 nM. The like results for `COc1ccc(C2CCCCC2)cc1-c1csc(NC(=O)N2CCN(C3CCS(=O)(=O)CC3)CC2)n1` [compound 33, 4-(1,1-dioxohexahydro-1λ^6-thiopyran-4-yl)piperazine-1-carboxylic acid [4-(5-cyclohexyl-2-methoxyphenyl)thiazol-2-yl]amide] were, in that order, 204 °C and 20 nM. The compound `COc1ccc(C2CCCCC2)cc1-c1csc(NC(=O)N2CCN(CC3CCOC(C)(C)C3)CC2)n1` (stereo not shown) [compound 40, 4-(2,2-dimethyltetrahydropyran-4-ylmethyl)piperazine-1-carboxylic acid [4-(5-cyclohexyl-2-methoxyphenyl)thiazol-2-yl]amide] yielded a melting point of 98 °C. Besides, the IC50 on human CCR2b receptor is 82 nM. Consider `COc1ccc(C2CCCCC2)cc1-c1csc(NC(=O)N2CCN(C3CCSCC3)CC2)n1` [compound 41, 4-(tetrahydrothiopyran-4-yl)piperazine-1-carboxylic acid [4-(5-cyclohexyl-2-methoxyphenyl)thiazol-2-yl]amide], for which the melting point amounted to 118 °C. On human CCR2b receptor, the IC50 was 39 nM. Regarding `COc1ccc(C2CCCCC2)cc1-c1csc(NC(=O)N2CCN(CC3CCCCN3S(=O)(=O)c3cnn(C)c3C)CC2)n1` (stereo not shown) [compound 45, 4-[1-(1,5-dimethyl-1H-pyrazole-4-sulphonyl)piperidin-2-ylmethyl]piperazine-1-carboxylic acid [4-(5-cyclohexyl-2-methoxyphenyl)thiazol-2-yl]amide], the IC50 at human CCR2b receptor is 73 nM.

As to “hMCP-1: human monocyte chemotactic protein, CC chemokine group, natural agonist of the CCR2b receptor [reference compound]”, the IC50 with human CCR2b receptor is 0.57 nM.
